According to PMC12750277, “Combining Experimental Assays and Molecular Modeling to Evaluate Monosubstituted Cinnamic Acid Derivatives as PDE4B Inhibitors” (ACS Omega, 2025):
Where “and” joins values, the source holds several entries; their conditions need not be identical. Equal values may be shown once. Read-outs that look alike come from different tables or passages of the source.

What was measured:
PDE4B = PDE4B (Homo sapiens, UniProt Q07343); assay: Human PDE4 enzyme inhibition assay ([3H]-cAMP), PDE4B; format: biochemical
Procedure: (§1) A standard procedure for PDE testing was carried out according to the previously mentioned protocol. , The enzyme was prepared from U937 cells which were derived from human monocytes, and was stored at −20 °C after preparation. Measurement of PDE4 activity was performed using this stored enzyme after it was diluted with distilled water containing bovine serum albumin. The substrate solution was prepared by adding [3H]-cAMP (300,000 dpm (5000 Bq)/ assay) and […] solution to 100 mmol/L Tris-HCl (pH 8.0) containing 5 mmol/L ethylene glycol-bis (β-aminoethyl ether) and O,O′-bis(2-aminoethyl)-ethylene glycol-N,N,N′,N′-tetraacetic acid. The substrate solution was mixed with the enzyme solution containing a test compound dissolved in DMSO, and incubation was done for 30 min at 30 °C.

[1] = tested on: TNF-α release in human blood mononuclear cells; assay: LPS-stimulated TNF-α release in PBMCs (TR-FRET); format: cell-based; details: PBMC, LPS stimulation 18 h, read-out: TNFα IC50
Procedure: The blood was mixed with saline at a ratio of 1:1, and the peripheral blood mononuclear cells (PBMCs) were isolated from buffy coats using Lymphoprep tubes. The PBMCs were suspended in RPMI 1640 with 0.5% human serum albumin, pen/strep, and 2 mM L-glutamine at 5 × 10^5 cells/mL. The cells were preincubated with the test compounds in 96-well plates for 30 min and stimulated for 18 h with […] lipopolysaccharide. TNF-α concentration in the supernatants was measured by homogeneous time-resolved fluorescence resonance (TR-FRET). The assay was quantified by measuring fluorescence at 665 nm (proportional to TNF-α concentration) and 620 nm (control). Results are expressed as IC50 values (μM).
The inhibitory effect of the 19 compounds on the release of HM-TNF-α correlated well with their potency in inhibiting PDE4. […] The well-established correlation between PDE4 inhibition and TNF-α suppression is mechanistically explained by the following pathway: By inhibiting PDE4, these compounds elevate intracellular cAMP levels, which in turn activates protein kinase A (PKA). PKA phosphorylates and inhibits key transcription factors like NF-κB, leading to the downregulation of pro-inflammatory cytokines such as TNF-α. This mechanism provides a solid foundation for understanding the anti-inflammatory effects observed in our study.

PDE4D = PDE4D (Homo sapiens, UniProt Q08499); assay: Human PDE4 enzyme inhibition assay ([3H]-cAMP), PDE4D; format: biochemical
Procedure: as §1

LPS induced TNF-α = assay: LPS induced sepsis for measurement of TNF-α inhibition in mice; format: in vivo; details: Swiss Albino mice (n = 6), 10 mg/kg po, serum 90 min after LPS
Procedure: The sepsis model in mice was induced using lipopolysaccharide (LPS) according to the methods described in the literature. Female Swiss albino mice were selected according to the body weights, which were equivalent within each group. The mice were fasted for 20 h with free access to water and dosed for oral administration (po) with the test compounds suspended in vehicle containing 0.5% Tween 80 in 0.25% sodium salt of carboxymethylcellulose. The control mice received the vehicle alone. After 30 min of oral dosing, the mice were injected intraperitoneally with 500 μg of lipopolysaccharide (Escherichia coli, LPS: B4 from Sigma) in phosphate buffer. Then the mice were bled via retro-orbital sinus puncture after 90 min of LPS administration. Serum samples were collected by centrifuging the blood samples at 4000 rpm for 20 min, which were stored overnight at 4 °C. The serum samples were then immediately checked for TNF-α levels using commercial mouse TNF-α ELISA kit (Amersham Biosciences) and assay was carried out following the manufacturer’s instruction.
In vivo experiments were conducted using an LPS-induced sepsis model to measure TNF-α inhibition in female Swiss Albino mice and to assess neutrophilia inhibition for asthma and COPD in male Sprague–Dawley rats. Details such as the oral dosages and the number of animals used, along with the percentage inhibition of neutrophilia calculated from the DLC, are provided in Table . […] These findings are particularly relevant in the context of COPD pathophysiology, where both TNF-α-driven inflammation and neutrophilic influx are well-established key drivers of tissue damage and disease progression.

[2] = tested on: LPS induced neutrophilia (neutrophil influx in BALF); assay: LPS induced neutrophilia model for asthma and COPD; format: in vivo; details: Sprague–Dawley rats (n = 6), 10 mg/kg po, BAL 6 h after LPS
Procedure: Neutrophilia was induced in Sprague–Dawley rats by lipopolysaccharide (LPS) following the established protocol. Male Sprague–Dawley rats were acclimatized to laboratory conditions for 1 week prior to the experiment. According to the body weight, the rats were distributed to various groups randomly. Except for the normal group, all the rats were exposed to 100 μg/mL lipopolysaccharide (E. coli, LPS: B4 from Sigma) for 40 min. The rats were dosed with the test compound suspended in the vehicle containing 0.25% carboxymethyl cellulose before half an hour of LPS exposure. Bronchoalveolar lavage (BAL) was performed 6 h after LPS exposure, total cell count and differential leukocyte count (DLC) were performed and compared with control and the standard drug.
In vivo experiments were conducted using an LPS-induced sepsis model to measure TNF-α inhibition in female Swiss Albino mice and to assess neutrophilia inhibition for asthma and COPD in male Sprague–Dawley rats.

[3] = tested on: tumor necrosis factor-α (TNF-α) in bronchoalveolar lavage fluid; details: oral administration, experimental COPD mice; cited from earlier work
[4] = PDE4B IC50, enzyme prepared from U937 cells, average of at least three assays
[5] = PDE4B pIC50 (Experimental), log(1/IC50), IC50 in μM
[6] = enzyme prepared from U937 cells, average of at least three assays, read-out: PDE4D IC50
[7] = enzyme prepared from U937 cells, average of at least three assays, read-out: PDE4B IC50
[8] = log(1/IC50), IC50 in μM, read-out: PDE4B pIC50 (Experimental) (converted)
[9] = PDE4B, as listed in Table S4 (rounded), read-out: IC50

Sequence of PDE4D (Q08499 386-715 limits assumed): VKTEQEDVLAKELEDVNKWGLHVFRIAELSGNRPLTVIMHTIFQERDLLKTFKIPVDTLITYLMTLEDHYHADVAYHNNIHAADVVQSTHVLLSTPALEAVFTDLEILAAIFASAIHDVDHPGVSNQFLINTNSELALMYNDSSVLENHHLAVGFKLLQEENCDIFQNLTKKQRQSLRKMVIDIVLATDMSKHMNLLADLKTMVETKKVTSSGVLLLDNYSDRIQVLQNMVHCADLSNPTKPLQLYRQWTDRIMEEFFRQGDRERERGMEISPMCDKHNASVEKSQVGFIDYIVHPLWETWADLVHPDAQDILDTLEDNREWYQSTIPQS
Sequence of PDE4B (Q07343 249-736 limits assumed): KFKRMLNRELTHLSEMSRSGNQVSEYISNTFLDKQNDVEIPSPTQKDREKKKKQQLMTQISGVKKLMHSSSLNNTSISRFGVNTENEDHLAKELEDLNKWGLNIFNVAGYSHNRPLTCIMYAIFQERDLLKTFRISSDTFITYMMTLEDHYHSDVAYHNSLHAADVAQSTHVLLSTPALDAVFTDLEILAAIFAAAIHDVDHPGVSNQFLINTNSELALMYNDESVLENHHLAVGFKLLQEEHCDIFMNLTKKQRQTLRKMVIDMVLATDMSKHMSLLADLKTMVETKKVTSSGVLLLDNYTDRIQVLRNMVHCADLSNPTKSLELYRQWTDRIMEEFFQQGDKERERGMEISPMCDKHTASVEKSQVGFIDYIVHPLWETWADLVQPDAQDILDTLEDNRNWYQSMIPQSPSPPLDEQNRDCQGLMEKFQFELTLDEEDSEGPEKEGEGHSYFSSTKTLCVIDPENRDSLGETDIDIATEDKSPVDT

Row | IC50 [1] [µM] | IC50 (PDE4D; [6]) [µM] | IC50 (PDE4B; [7]) [µM] | IC50 (PDE4B; [8]) [µM] | IC50 (PDE4B; [9]) [µM] | SMILES | also measured
1 | 40.4 ± 0.8 | 39.6 ± 1.7 | 41.4 ± 1.3 | 41.7 |  | O=C(O)/C=C/c1ccccc1O [Compound 2, ortho-coumaric acid] | 
2 | 37.8 ± 1.9 | 32.7 ± 2.1 | 28.4 ± 1.4 | 28.2 |  | O=C(O)/C=C/c1cccc(O)c1 [Compound 3, meta-coumaric acid] | 
3 | 64.2 ± 3.1 | 91.4 ± 2.9 | 51.1 ± 1.9 | 51.3 |  | COc1ccccc1/C=C/C(=O)O [Compound 5, trans-2-methoxycinnamic acid] | 
4 | 58.3 ± 2 | 65.6 ± 1.8 | 32.8 ± 1.1 | 33.1 |  | COc1cccc(/C=C/C(=O)O)c1 [Compound 6, trans-3-methoxycinnamic acid] | 
5 | 30.8 ± 1.6 | 45.6 ± 1.8 | 8.2 ± 1.2 | 8.13 |  | COc1ccc(/C=C/C(=O)O)cc1 [Compound 7, trans-4-methoxycinnamic acid] | selectivity for PDE4B over PDE4D (PDE4B; compared with rolipram): higher selectivity ratios for PDE4B over PDE4D than rolipram; TNF-α inhibition (%) (LPS induced TNF-α): 29.6% and 29.6 ± 0.36%; LPS induced neutrophilia (% inhibition) [2]: 24.2% and 24.2 ± 0.52%
6 | 169 ± 5.1 |  | 137 ± 5.8 | 135 | 136 | Cc1ccccc1/C=C/C(=O)O [Compound 8, trans-2-methylcinnamic acid] | 
7 | 121 ± 5.7 |  | 102 ± 4.1 | 102 | 102 | Cc1cccc(/C=C/C(=O)O)c1 [Compound 9, trans-3-methylcinnamic acid] | 
8 | 99.2 ± 4.1 |  | 85.3 ± 3.8 | 85.1 | 85 | Cc1ccc(/C=C/C(=O)O)cc1 [Compound 10, trans-4-methylcinnamic acid] | 
9 | 128 ± 5.8 | 89.6 ± 3.7 | 82.1 ± 3.9 | 81.3 | 82 | O=C(O)/C=C/c1ccccc1Cl [Compound 11, trans-2-chlorocinnamic acid] | 
10 | 119 ± 4.8 | 62.7 ± 2.8 | 63.2 ± 3.4 | 63.1 | 63 | O=C(O)/C=C/c1cccc(Cl)c1 [Compound 12, trans-3-chlorocinnamic acid] | 
11 | 89.7 ± 3.2 | 57.3 ± 2.4 | 44.5 ± 2.2 | 43.7 | 44 | O=C(O)/C=C/c1ccc(Cl)cc1 [Compound 13, trans-4-chlorocinnamic acid] | 
12 | 96.5 ± 3 |  | 112 ± 6.4 | 112 | 111 | O=C(O)/C=C/c1ccc([N+](=O)[O-])cc1 [Compound 14, trans-4-nitrocinnamic acid] | 
13 | 98.5 ± 2.8 |  | 101 ± 5.4 | 100 | 101 | O=Cc1ccc(/C=C/C(=O)O)cc1 [Compound 15, trans-4-formylcinnamic acid] | 
14 | 65.2 ± 3.1 | 36.6 ± 2.1 | 33.4 ± 1.5 | 33.1 | 33 | O=C(O)/C=C/c1ccc(F)cc1 [Compound 16, trans-4-fluorocinnamic acid] | 
15 | 125 ± 5.5 |  | 87.2 ± 3.5 | 87.1 | 87 | O=C(O)/C=C/c1ccc(Br)cc1 [Compound 17, trans-4-bromocinnamic acid] | 
16 | 65.2 ± 3.1 | 19.6 ± 1.1 |  | 33.1 | 33 | CN(C)c1ccc(/C=C/C(=O)O)cc1 [Compound 18, trans-4-dimethylaminocinnamic acid] | 
17 | 118 ± 5.1 |  | 97.2 ± 4.3 | 97.7 | 97 | O=C(O)/C=C/c1ccc(C(F)(F)F)cc1 [Compound 19, trans-4-trifluoromethylcinnamic acid] | 
18 | 18.5 ± 1 |  |  |  |  | COc1ccc(C2CNC(=O)C2)cc1OC1CCCC1 (stereo not shown) [Rolipram, reference compound] | TNF-α inhibition (%) (LPS induced TNF-α): 41.7% and 41.7 ± 0.78%; LPS induced neutrophilia (% inhibition) [2]: 32.8% and 32.8 ± 0.40%
19 |  |  |  |  |  | O=C(O)C=Cc1cc(O)c(O)c(O)c1 [THCA, 3,4,5-Trihydroxycinnamic acid] | TNF-α in bronchoalveolar lavage fluid [3]: significantly inhibited

Row | SMILES | IC50 [1] [µM] | IC50 (PDE4D; [6]) [µM] | IC50 (PDE4B; [7]) [µM] | IC50 (PDE4B; [8]) [µM] | IC50 (PDE4B; [9]) [µM] | also measured
20 | O=C(O)/C=C/c1ccccc1 [Compound 1, trans-cinnamic acid] | 198 ± 8.2 |  |  |  |  | IC50 (PDE4B; [4]): 90.3 ± 3.8 µM; IC50 (PDE4B; [5]): 91.2 µM
21 | O=C(O)/C=C/c1ccc(O)cc1 [Compound 4, p-coumaric acid] | 21.5 ± 1.3 |  |  |  |  | IC50 (PDE4D): 2.3 ± 0.7 µM; IC50 (PDE4B; [4]): 2.2 ± 0.8 µM; IC50 (PDE4B; [5]): 2.19 µM; TNF-α inhibition (%) (LPS induced TNF-α): 41.1% and 41.1 ± 0.65%; LPS induced neutrophilia (% inhibition) [2]: 32.5% and 32.5 ± 0.33%
